Like-named read-outs stand apart in the source and are kept apart here.
Assays:
[1] = system: early breast cancer patients; conditions: 5 years of treatment, versus tamoxifen, hormone receptor-positive women; cited from earlier work
[2] = system: first line metastatic breast cancer patients
Text: The total number of patients in this trial was 1258, 1164 pretreatment serum samples were available for analysis. We obtained valid VeriStrat test results for 1046 of these patients, of which 961 were classified as VeriStrat Good, 80 were VeriStrat Poor, and 5 were VeriStrat Indeterminate (Undefined) (patients for whom 3 replicate spectra produced discrepant results); 117 samples were not evaluable due to hemolysis and we could not assign a VeriStrat label to one patient due to data inconsistencies between available samples.
The classifier assigned a class label to the samples, either “Good” or “Poor” or in a few instances “undefined.” The class labels were assigned using a K-nearest neighbor (KNN) scoring algorithm based on a comparison of the spectra, after preprocessing and calculation of integrated intensity values at selected features in the spectra, with a training set of class-labeled spectra from other cancer patients.
In our retrospective analysis of the EGF30008 study, we obtained serum samples from the patients participating in the study, subjected them to our VeriStrat test, and the samples were assigned class labels of Good or Poor, depending on the outcome of the KNN algorithm in the classifier.
A Cox Proportional Hazard Model analysis was carried out including VeriStrat classification, treatment arm, and an interaction term between the two.

[3] = system: advanced breast cancer patients; conditions: letrozole versus anastrozole; cited from earlier work

SMILES: CC(C)(C#N)c1cc(Cn2cncn2)cc(C(C)(C)C#N)c1 [anastrozole]
- Reduction in recurrence rates [1]: 26%

SMILES: N#Cc1ccc(C(c2ccc(C#N)cc2)n2cncn2)cc1 [letrozole]
- HR for PFS, VeriStrat Good vs VeriStrat Poor within the treatment arm (95% CI) ([2]; HER2+ patients): 0.29
- Median PFS ([2]; HER2+ patients, VeriStrat Good): 3.0 months
- Median PFS ([2]; HER2+ patients, VeriStrat Poor): 2.3 months
- HR for PFS, VeriStrat Good vs VeriStrat Poor within the treatment arm (95% CI) ([2]; HER2+ patients, listed as Let only): 0.29 (0.09-0.98)
- Median PFS ([2]; HER2- patients, VeriStrat Good): 13.6 months
- Median PFS ([2]; HER2- patients, VeriStrat Poor): 3.1 months
- HR for PFS, VeriStrat Good vs VeriStrat Poor within the treatment arm (95% CI) ([2]; HER2- patients, listed as Let only): 0.37 (0.21-0.64)
- HR for PFS, VeriStrat Good vs VeriStrat Poor within the treatment arm (95% CI) ([2]; HER2- patients, listed as letrozole+placebo): 0.37
- Median PFS ([2]; overall population, VeriStrat Good patients): 10.8 months
- Median PFS ([2]; overall population, VeriStrat Poor patients): 2.8 months
- HR for PFS, VeriStrat Good vs VeriStrat Poor within the treatment arm (95% CI) ([2]; overall population, listed as Let only): 0.36 (0.23-0.58)
- HR for PFS, VeriStrat Good vs VeriStrat Poor within the treatment arm (95% CI) ([2]; overall population, listed as letrozole+placebo): 0.36
- Overall response rate (ORR) [3]: significantly superior to anastrozole

SMILES: CS(=O)(=O)CCNCc1ccc(-c2ccc3ncnc(Nc4ccc(OCc5cccc(F)c5)c(Cl)c4)c3c2)o1 [lapatinib]
- Patient outcome on addition of lapatinib to letrozole ([2]; VeriStrat Good group): little or no clinical benefit
- Patient outcome on addition of lapatinib to letrozole ([2]; VeriStrat Poor group): significantly improves patient outcome
